Assay results taken from PubChem BioAssay (NCI).
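Here, GI50 denotes the concentration required for 50% inhibition of growth. TGI marks complete inhibition of growth.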

Columns and labels:
Assay in all cases: NCI-60 cell line screen, 384-well format
786-0 renal = system: 786-0 renal
ACHN renal = system: ACHN renal
RPMI-8226 leukemia = system: RPMI-8226 leukemia
CCRF-CEM leukemia = system: CCRF-CEM leukemia
NCI-H460 NSCLC = system: NCI-H460 NSCLC
COLO 205 colon = system: COLO 205 colon
SF-539 CNS = system: SF-539 CNS
HT29 colon = system: HT29 colon
CAKI-1 renal = system: CAKI-1 renal
HS 578T breast = system: HS 578T breast
MOLT-4 leukemia = system: MOLT-4 leukemia
BT-549 breast = system: BT-549 breast
SK-MEL-5 melanoma = system: SK-MEL-5 melanoma
SF-268 CNS = system: SF-268 CNS
HOP-62 NSCLC = system: HOP-62 NSCLC
DU-145 prostate = system: DU-145 prostate
NCI/ADR-RES ovarian = system: NCI/ADR-RES ovarian
KM12 colon = system: KM12 colon
U251 glioblastoma = system: U251 glioblastoma
A549 NSCLC = system: A549 NSCLC
M14 melanoma = system: M14 melanoma
HCC-2998 colon = system: HCC-2998 colon
MDA-MB-468 breast = system: MDA-MB-468 breast
SK-MEL-2 melanoma = system: SK-MEL-2 melanoma
OVCAR-8 ovarian = system: OVCAR-8 ovarian
EKVX NSCLC = system: EKVX NSCLC
SW-620 colon = system: SW-620 colon
SN12C renal = system: SN12C renal
OVCAR-5 ovarian = system: OVCAR-5 ovarian
NCI-H226 lung = system: NCI-H226 lung
SR leukemia = system: SR leukemia
UACC-257 melanoma = system: UACC-257 melanoma
MDA-MB-435 melanoma = system: MDA-MB-435 melanoma
NCI-H522 lung = system: NCI-H522 lung
IGROV1 ovarian = system: IGROV1 ovarian
PC-3 prostate = system: PC-3 prostate
RXF 393 renal = system: RXF 393 renal
OVCAR-3 ovarian = system: OVCAR-3 ovarian
SNB-19 CNS = system: SNB-19 CNS
NCI-H23 lung = system: NCI-H23 lung
MALME-3M melanoma = system: MALME-3M melanoma
HOP-92 NSCLC = system: HOP-92 NSCLC
SK-MEL-28 melanoma = system: SK-MEL-28 melanoma
NCI-H322M lung = system: NCI-H322M lung
SF-295 CNS = system: SF-295 CNS
HL-60(TB) leukemia = system: HL-60(TB) leukemia
SK-OV-3 ovarian = system: SK-OV-3 ovarian
MDA-MB-231 breast = system: MDA-MB-231 breast
SNB-75 CNS = system: SNB-75 CNS
UACC-62 melanoma = system: UACC-62 melanoma
T-47D breast = system: T-47D breast
MCF7 breast = system: MCF7 breast
OVCAR-4 ovarian = system: OVCAR-4 ovarian
TK-10 renal = system: TK-10 renal
HCT-15 colon = system: HCT-15 colon
A498 renal = system: A498 renal

Nc1n[n+](=O)c2ccccc2n1O
GI50 (786-0 renal): 59.8 µM | TGI (786-0 renal): > 100 µM | GI50 (ACHN renal): 27.2 µM | TGI (ACHN renal): 69.8 µM | GI50 (RPMI-8226 leukemia): 13.3 µM | TGI (RPMI-8226 leukemia): 31.4 µM | GI50 (CCRF-CEM leukemia): 20.5 µM | TGI (CCRF-CEM leukemia): 47.5 µM | GI50 (NCI-H460 NSCLC): 18.8 µM | TGI (NCI-H460 NSCLC): 61.6 µM | GI50 (COLO 205 colon): 35.8 µM | TGI (COLO 205 colon): > 100 µM | GI50 (SF-539 CNS): 58.3 µM | TGI (SF-539 CNS): > 100 µM | GI50 (HT29 colon): 69.7 µM | TGI (HT29 colon): > 100 µM | GI50 (CAKI-1 renal): 36.2 µM | TGI (CAKI-1 renal): > 100 µM | GI50 (HS 578T breast): 20 µM | TGI (HS 578T breast): > 100 µM | GI50 (MOLT-4 leukemia): 12.3 µM | TGI (MOLT-4 leukemia): 24.8 µM | GI50 (BT-549 breast): 24.1 µM | TGI (BT-549 breast): 65.1 µM | GI50 (SK-MEL-5 melanoma): 14.7 µM | TGI (SK-MEL-5 melanoma): 34.3 µM | GI50 (SF-268 CNS): 24.3 µM | TGI (SF-268 CNS): 73.5 µM | GI50 (HOP-62 NSCLC): 22.5 µM | TGI (HOP-62 NSCLC): 66.6 µM | GI50 (DU-145 prostate): 43.5 µM | TGI (DU-145 prostate): > 100 µM | GI50 (NCI/ADR-RES ovarian): 51.4 µM | TGI (NCI/ADR-RES ovarian): > 100 µM | GI50 (KM12 colon): 41.7 µM | TGI (KM12 colon): > 100 µM | GI50 (U251 glioblastoma): 46.7 µM | TGI (U251 glioblastoma): > 100 µM | GI50 (A549 NSCLC): 47 µM | TGI (A549 NSCLC): > 100 µM | GI50 (M14 melanoma): 24.5 µM | TGI (M14 melanoma): 65.6 µM | GI50 (HCC-2998 colon): 35.8 µM | TGI (HCC-2998 colon): > 100 µM | GI50 (MDA-MB-468 breast): 6.96 µM | TGI (MDA-MB-468 breast): 23.1 µM | GI50 (SK-MEL-2 melanoma): 42.2 µM | TGI (SK-MEL-2 melanoma): 90.5 µM | GI50 (OVCAR-8 ovarian): 37.7 µM | TGI (OVCAR-8 ovarian): > 100 µM | GI50 (EKVX NSCLC): 33.1 µM | TGI (EKVX NSCLC): > 100 µM | GI50 (SW-620 colon): 72.5 µM | TGI (SW-620 colon): > 100 µM | GI50 (SN12C renal): 22.3 µM | TGI (SN12C renal): > 100 µM | GI50 (OVCAR-5 ovarian): > 100 µM | TGI (OVCAR-5 ovarian): > 100 µM | GI50 (NCI-H226 lung): 39.4 µM | TGI (NCI-H226 lung): > 100 µM | GI50 (SR leukemia): 4.04 µM | TGI (SR leukemia): 13.5 µM | GI50 (UACC-257 melanoma): 68.2 µM | TGI (UACC-257 melanoma): > 100 µM | GI50 (MDA-MB-435 melanoma): > 100 µM | TGI (MDA-MB-435 melanoma): > 100 µM | GI50 (NCI-H522 lung): 11.9 µM | TGI (NCI-H522 lung): 44.1 µM | GI50 (IGROV1 ovarian): 36.7 µM | TGI (IGROV1 ovarian): > 100 µM | GI50 (PC-3 prostate): 46.4 µM | TGI (PC-3 prostate): > 100 µM | GI50 (RXF 393 renal): 36.8 µM | TGI (RXF 393 renal): > 100 µM | GI50 (OVCAR-3 ovarian): 35.1 µM | TGI (OVCAR-3 ovarian): > 100 µM | GI50 (SNB-19 CNS): 48.2 µM | TGI (SNB-19 CNS): > 100 µM | GI50 (NCI-H23 lung): 18 µM | TGI (NCI-H23 lung): 46.5 µM | GI50 (MALME-3M melanoma): 27.8 µM | TGI (MALME-3M melanoma): 81.4 µM | GI50 (HOP-92 NSCLC): 20.3 µM | TGI (HOP-92 NSCLC): 65.5 µM | GI50 (SK-MEL-28 melanoma): > 100 µM | TGI (SK-MEL-28 melanoma): > 100 µM | GI50 (NCI-H322M lung): > 100 µM | TGI (NCI-H322M lung): > 100 µM | GI50 (SF-295 CNS): 26.1 µM | TGI (SF-295 CNS): > 100 µM | GI50 (HL-60(TB) leukemia): 20.2 µM | TGI (HL-60(TB) leukemia): 40.5 µM | GI50 (SK-OV-3 ovarian): 17.7 µM | TGI (SK-OV-3 ovarian): 70.5 µM | GI50 (MDA-MB-231 breast): 70 µM | TGI (MDA-MB-231 breast): > 100 µM | GI50 (SNB-75 CNS): 20 µM | TGI (SNB-75 CNS): 60.3 µM | GI50 (UACC-62 melanoma): 20.6 µM | TGI (UACC-62 melanoma): 59.9 µM | GI50 (T-47D breast): 24.1 µM | TGI (T-47D breast): > 100 µM | GI50 (MCF7 breast): 57.6 µM | TGI (MCF7 breast): > 100 µM | GI50 (OVCAR-4 ovarian): 24.5 µM | TGI (OVCAR-4 ovarian): 73 µM | GI50 (TK-10 renal): 69.8 µM | TGI (TK-10 renal): > 100 µM | GI50 (HCT-15 colon): 32 µM | TGI (HCT-15 colon): > 100 µM | GI50 (A498 renal): 38.7 µM | TGI (A498 renal): > 100 µM
